System: colorectal tissue transcripts
Experiment: SAGE of normal, adenoma and cancer colorectal tissue (transcript tag counts)
Design: species or system human
Summary of the method: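 Tag counts reflect transcript abundance, each mRNA represented by a 15-base tag near its 3′ end. Excluding MHC tags, linkers and duplicate ditags, libraries were compared statistically: two each of normal epithelium, FAP-derived adenomas (>70% neoplastic) and carcinomas.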

[1] = normal colorectal tissue library 1
[2] = normal colorectal tissue library 2

Row | Sequence | AD1 (SAGE tag count) (SAGE library AD1) | AD2 (SAGE tag count) (SAGE library AD2) | CA1 (SAGE tag count) (SAGE library CA1) | CA2 (SAGE tag count) (SAGE library CA2) | NC1 (SAGE tag count) (SAGE library NC1) | NC2 (SAGE tag count) (SAGE library NC2) | AD1 (SAGE tag count) (adenoma library 1) | AD2 (SAGE tag count) (adenoma library 2) | CA1 (SAGE tag count) (cancer library 1) | CA2 (SAGE tag count) (cancer library 2) | NC1 (SAGE tag count) [1] | NC2 (SAGE tag count) [2]
1 | GGCACCGTGC (chemistry not fully specified) | 8 | 10 | 8 | 4 | 22 | 44 |  |  |  |  |  | 
2 | GCCACGTGGA (chemistry not fully specified) | 5 | 2 | 7 | 1 | 19 | 16 |  |  |  |  |  | 
3 | TAGGATGGGG (chemistry not fully specified) |  |  |  |  |  |  | 4 | 7 | 6 | 1 | 24 | 30
4 | GTAGCAGGTG (chemistry not fully specified) | 11 | 7 | 7 | 7 | 24 | 27 |  |  |  |  |  | 
5 | ACAATTGGTC (chemistry not fully specified) | 0 | 0 | 0 | 0 | 0 | 10 |  |  |  |  |  | 
6 | CTTCCAGCTA (chemistry not fully specified) | 22 | 20 | 14 | 19 | 64 | 31 |  |  |  |  |  | 
7 | CTTACAAGCA (chemistry not fully specified) | 2 | 3 | 4 | 3 | 21 | 13 |  |  |  |  |  | 
8 | GGTGAAGAGG (chemistry not fully specified) | 5 | 3 | 10 | 9 | 16 | 32 |  |  |  |  |  | 
9 | ATACTCCACT (chemistry not fully specified) | 0 | 0 | 10 | 3 | 82 | 59 |  |  |  |  |  | 
10 | GTCCTGAACA (chemistry not fully specified) | 0 | 0 | 0 | 0 | 7 | 3 |  |  |  |  |  | 
11 | CGCTGTGGGG (chemistry not fully specified) | 19 | 8 | 8 | 6 | 58 | 53 |  |  |  |  |  | 
12 | CTGTGTGGCT (chemistry not fully specified; the letters are possibly those of the target site) | 1 | 0 | 0 | 0 | 0 | 12 |  |  |  |  |  | 
13 | AACGTGCAGG (chemistry not fully specified) | 13 | 6 | 7 | 8 | 29 | 31 |  |  |  |  |  | 
14 | CCTGGAAGAG (chemistry not fully specified) | 11 | 4 | 12 | 16 | 30 | 26 |  |  |  |  |  | 
15 | TCAGCTGCAA (chemistry not fully specified) |  |  |  |  |  |  | 0 | 0 | 9 | 3 | 56 | 16
